{
  "source": "DBAASP",
  "assay_in_all_cases": "≥ marks a high value that may be exact or a test limit, other limits are often not marked, values filed in µg/mL are converted to µM",
  "key": {"[1]": {"system": "Streptococcus sanguinis NY101"}, "[2]": {"system": "Streptococcus mutans UA159"}, "[3]": {"system": "Streptococcus gordonii DL1"}, "[4]": {"system": "Streptococcus mutans comD"}, "[5]": {"system": "Candida tropicalis KCTC 1925"}, "Enterococcus sp.": {"system": "Enterococcus sp."}, "[6]": {"system": "Escherichia coli K-12 594"}, "[7]": {"system": "Micrococcus luteus KCTC 3063"}, "[8]": {"system": "Staphylococcus aureus KCTC 1928"}, "[9]": {"system": "Candida albicans KCTC 7965"}, "[10]": {"system": "Bacillus subtilis KCTC 3068"}, "Staphylococcus aureus": {"system": "Staphylococcus aureus"}, "[11]": {"system": "Lactococcus lactis subsp. cremoris I116"}, "[12]": {"system": "Enterococcus faecium t62764"}, "Escherichia coli UB1005": {"system": "Escherichia coli UB1005"}, "Pseudomonas aeruginosa 9": {"system": "Pseudomonas aeruginosa 9"}, "[13]": {"system": "Stenotrophomonas maltophilia ATCC 13637"}, "[14]": {"system": "Enterobacter cloacae 218R"}, "[15]": {"system": "Pseudomonas aeruginosa H1027"}, "[16]": {"system": "Pseudomonas aeruginosa 198"}, "[17]": {"system": "Pseudomonas aeruginosa H1030"}, "[18]": {"system": "Pseudomonas aeruginosa H103"}, "[19]": {"system": "Staphylococcus aureus ATCC 25923"}, "[20]": {"system": "Klebsiella pneumoniae ESBL 61962"}, "[21]": {"system": "Salmonella enterica serovar Typhimurium"}, "[22]": {"system": "Staphylococcus epidermidis"}, "[23]": {"system": "Enterococcus faecalis W61950"}, "Candida albicans": {"system": "Candida albicans"}, "[24]": {"system": "Staphylococcus aureus C623"}, "[25]": {"system": "Escherichia coli ESBL 64771"}, "[26]": {"system": "Enterococcus faecium mic80"}, "[27]": {"system": "Pseudomonas aeruginosa PAO1 H103"}, "[28]": {"system": "Enterococcus faecalis ATCC 29212"}, "[29]": {"system": "Escherichia coli ESBL 63103"}, "[30]": {"system": "Klebsiella pneumoniae ESBL 63575"}, "[31]": {"system": "Saccharomyces cerevisiae KCTC 7296"}, "[32]": {"system": "Trichosporon beigelii KCTC 7707"}, "[33]": {"system": "Candida albicans TIMM 1768"}, "[34]": {"system": "Escherichia coli PCM 2057"}, "[35]": {"system": "Micrococcus luteus ATCC 4698"}, "Enterococcus faecalis": {"system": "Enterococcus faecalis"}, "[36]": {"system": "Streptococcus sobrinus ATCC 33478"}, "[37]": {"system": "Streptococcus mitis ATCC 903"}, "Escherichia coli W3110": {"system": "Escherichia coli W3110"}, "[38]": {"system": "Streptococcus gordonii Challis DL1"}, "[39]": {"system": "Pseudomonas aeruginosa PAK"}},
  "data": [
    {"smiles": "NCCCC[C@H](NC(=O)[C@H](Cc1c[nH]c2ccccc12)NC(=O)[C@H](Cc1ccccc1)NC(=O)[C@H](CCCCN)NC(=O)[C@H](CCCCN)NC(=O)[C@@H](N)Cc1ccccc1)C(=O)N[C@@H](Cc1c[nH]c2ccccc12)C(=O)N[C@@H](Cc1ccccc1)C(=O)N[C@@H](CCCN=C(N)N)C(=O)N[C@@H](CCCN=C(N)N)C(=O)N[C@@H](Cc1ccccc1)C(=O)O", "note": "[FKKFWKWFRRF]", "values": [
      {"measurement": "MIC", "setting": "[1]", "value": "≥ 40", "unit": "µM"},
      {"measurement": "MIC", "setting": "[2]", "value": 7, "unit": "µM"},
      {"measurement": "MIC", "setting": "[3]", "value": 20, "unit": "µM"},
      {"measurement": "MIC", "setting": "[4]", "value": 6.5, "unit": "µM"}
    ]},
    {"smiles": "CC[C@H](C)[C@H](NC(=O)[C@H](CCCCN)NC(=O)[C@H](CCCCN)NC(=O)[C@H](CC(C)C)NC(=O)[C@H](C)NC(=O)[C@H](CCCN=C(N)N)NC(=O)[C@H](CCCCN)NC(=O)CNC(=O)[C@H](CC(C)C)NC(=O)[C@H](CCCN=C(N)N)NC(=O)[C@H](CC(C)C)NC(=O)[C@H](C)NC(=O)[C@H](CC(C)C)NC(=O)CNC(=O)[C@H](CC(N)=O)NC(=O)[C@H](CC(C)C)NC(=O)[C@H](CC(C)C)NC(=O)CN)C(=O)N[C@H](C(=O)N[C@@H](CCCCN)C(=O)N[C@@H](CCCN=C(N)N)C(=O)N[C@@H](CC(C)C)C(=O)N[C@@H](CS)C(=O)N[C@@H](CCCN=C(N)N)C(=O)O)[C@@H](C)CC", "note": "[GLLNGLALRLGKRALKKIIKRLCR]", "values": [
      {"measurement": "MIC", "setting": "[5]", "value": 1.15, "unit": "µM"},
      {"measurement": "MIC", "setting": "Enterococcus sp.", "value": 9.24, "unit": "µM"},
      {"measurement": "MIC", "setting": "[6]", "value": 1.15, "unit": "µM"},
      {"measurement": "MIC", "setting": "[7]", "value": 0.577, "unit": "µM"},
      {"measurement": "MIC", "setting": "[8]", "value": 9.24, "unit": "µM"},
      {"measurement": "MIC", "setting": "[9]", "value": 18.5, "unit": "µM"},
      {"measurement": "MIC", "setting": "[10]", "value": 1.15, "unit": "µM"},
      {"measurement": "MIC", "setting": "Staphylococcus aureus", "value": 9.24, "unit": "µM"}
    ]},
    {"smiles": "CC[C@H](C)[C@H](NC(=O)[C@H](CC(C)C)NC(=O)CNC(=O)CNC(=O)[C@@H](NC(=O)[C@H](CCCCN)NC(=O)CNC(=O)[C@H](CC(C)C)NC(=O)[C@@H](NC(=O)[C@H](CC(=O)O)NC(=O)[C@@H](NC(=O)[C@H](CC(C)C)NC(=O)CN)C(C)C)C(C)C)C(C)C)C(=O)N[C@@H](CCCCN)C(=O)N[C@@H](CCCCN)C(=O)N[C@@H](CC(C)C)C(=O)N[C@@H](CC(C)C)C(=O)N1CCC[C@H]1C(N)=O", "note": "[GLVDVLGKVGGLIKKLLP]", "values": [
      {"measurement": "MIC", "setting": "[11]", "value": "≥ 32", "unit": "µM"}
    ]},
    {"smiles": "CC[C@H](C)[C@H](NC(=O)[C@@H](N)CCCCN)C(=O)N[C@@H](Cc1c[nH]c2ccccc12)C(=O)N[C@@H](Cc1c[nH]c2ccccc12)C(=O)N[C@@H](Cc1c[nH]c2ccccc12)C(=O)N[C@@H](Cc1c[nH]c2ccccc12)C(=O)N[C@@H](CCCN=C(N)N)C(=O)N[C@@H](CCCCN)C(=O)N[C@@H](CCCN=C(N)N)C(=O)O", "note": "[KIWWWWRKR]", "values": [
      {"measurement": "MIC", "setting": "[12]", "value": 0.692, "unit": "µM"},
      {"measurement": "MIC", "setting": "Escherichia coli UB1005", "value": 5.3, "unit": "µM"},
      {"measurement": "MIC", "setting": "Pseudomonas aeruginosa 9", "value": 22.1, "unit": "µM"},
      {"measurement": "MIC", "setting": "[13]", "value": 1.45, "unit": "µM"},
      {"measurement": "MIC", "setting": "[14]", "value": "≥ 45", "unit": "µM"},
      {"measurement": "MIC", "setting": "[15]", "value": 2.84, "unit": "µM"},
      {"measurement": "MIC", "setting": "[16]", "value": 11.8, "unit": "µM"},
      {"measurement": "MIC", "setting": "[17]", "value": 5.75, "unit": "µM"},
      {"measurement": "MIC", "setting": "[18]", "value": "≥ 42.3", "unit": "µM"},
      {"measurement": "MIC", "setting": "[19]", "value": 2.84, "unit": "µM"},
      {"measurement": "MIC", "setting": "[20]", "value": "≥ 90", "unit": "µM"},
      {"measurement": "MIC", "setting": "[21]", "value": 10.6, "unit": "µM"},
      {"measurement": "MIC", "setting": "[22]", "value": 1.3, "unit": "µM"},
      {"measurement": "MIC", "setting": "[23]", "value": "≥ 45", "unit": "µM"},
      {"measurement": "MIC", "setting": "Candida albicans", "value": 10.6, "unit": "µM"},
      {"measurement": "MIC", "setting": "[24]", "value": 2.84, "unit": "µM"},
      {"measurement": "MIC", "setting": "[25]", "value": 2.84, "unit": "µM"},
      {"measurement": "MIC", "setting": "[26]", "value": 2.84, "unit": "µM"},
      {"measurement": "MIC", "setting": "[27]", "value": 2.84, "unit": "µM"},
      {"measurement": "MIC", "setting": "[28]", "value": 11.8, "unit": "µM"},
      {"measurement": "MIC", "setting": "[29]", "value": 5.75, "unit": "µM"},
      {"measurement": "MIC", "setting": "[30]", "value": 22.1, "unit": "µM"}
    ]},
    {"smiles": "CC[C@H](C)[C@H](NC(=O)[C@@H](NC(=O)[C@@H](N)CCCNC(=N)N)[C@@H](C)CC)C(=O)N[C@@H](CC(=O)O)C(=O)N[C@@H](CC(C)C)C(=O)N[C@@H](CC(C)C)C(=O)N[C@@H](Cc1c[nH]c2ccccc12)C(=O)N[C@@H](CCCNC(=N)N)C(=O)N[C@H](C(=O)N[C@@H](CCCNC(=N)N)C(=O)N[C@@H](CCCNC(=N)N)C(=O)N1CCC[C@H]1C(=O)N[C@@H](Cc1c[nH]c2ccccc12)C(=O)N[C@@H](CCCCN)C(=O)N1CCC[C@H]1C(=O)N[C@@H](CCCCN)C(=O)N[C@@H](Cc1ccccc1)C(=O)N[C@H](C(=O)N[C@H](C(=O)N[C@H](C(=O)N[C@@H](Cc1c[nH]c2ccccc12)C(=O)N[C@H](C(=O)N[C@H](C=O)CCCNC(=N)N)C(C)C)C(C)C)[C@@H](C)O)C(C)C)C(C)C", "note": "[RIIDLLWRVRRPWKPKFVTVWVR]", "values": [
      {"measurement": "MIC", "setting": "[31]", "value": 10, "unit": "µM"},
      {"measurement": "MIC", "setting": "[32]", "value": 10, "unit": "µM"},
      {"measurement": "MIC", "setting": "[33]", "value": 14.1, "unit": "µM"}
    ]},
    {"smiles": "CC[C@H](C)[C@H](NC(=O)[C@@H](NC(=O)[C@@H](N)CO)C(C)C)C(=O)NCC(=O)N[C@H]1CSSC[C@@H](C(=O)N[C@@H](Cc2ccccc2)C(=O)N[C@H](C(=O)N[C@@H](CCCCN)C(N)=O)C(C)C)NC(=O)[C@@H]2CCCN2C(=O)[C@H](CCCN=C(N)N)NC(=O)[C@@H]2CCCN2C(=O)[C@@H]2CCCN2C(=O)[C@H]([C@@H](C)CC)NC(=O)[C@H](CO)NC(=O)[C@H](CCCCN)NC(=O)[C@H]([C@@H](C)O)NC(=O)[C@H](Cc2c[nH]c3ccccc23)NC1=O", "note": "[SVIGCWTKSIPPRPCFVK]", "values": [
      {"measurement": "MIC", "setting": "[34]", "value": "≥ 495", "unit": "µM"},
      {"measurement": "MIC", "setting": "[35]", "value": "≥ 74.3", "unit": "µM"}
    ]},
    {"smiles": "C[C@@H](O)[C@H](NC(=O)[C@H](CO)NC(=O)[C@H](Cc1c[nH]c2ccccc12)NC(=O)[C@H](Cc1c[nH]c2ccccc12)NC(=O)[C@H](CO)NC(=O)[C@H](Cc1cnc[nH]1)NC(=O)[C@H](Cc1c[nH]c2ccccc12)NC(=O)[C@@H](N)Cc1c[nH]c2ccccc12)C(=O)N[C@@H](Cc1c[nH]c2ccccc12)C(N)=O", "note": "[WWHSWWSTW]", "values": [
      {"measurement": "MIC", "setting": "Enterococcus faecalis", "value": "≥ 91.8", "unit": "µM"},
      {"measurement": "MIC", "setting": "[36]", "value": "≥ 91.8", "unit": "µM"},
      {"measurement": "MIC", "setting": "[1]", "value": "≥ 91.8", "unit": "µM"},
      {"measurement": "MIC", "setting": "[37]", "value": "≥ 91.8", "unit": "µM"},
      {"measurement": "MIC", "setting": "[2]", "value": "≥ 91.8", "unit": "µM"},
      {"measurement": "MIC", "setting": "Escherichia coli W3110", "value": "≥ 91.8", "unit": "µM"},
      {"measurement": "MIC", "setting": "[38]", "value": "≥ 91.8", "unit": "µM"},
      {"measurement": "MIC", "setting": "[39]", "value": "≥ 91.8", "unit": "µM"},
      {"measurement": "MIC", "setting": "Staphylococcus aureus", "value": "> 91.8", "unit": "µM"}
    ]}
  ]
}
